Laboratory results reported in patent US10669272B2, “Substituted naphthyridinone compounds useful as T cell activators” (BRISTOL-MYERS SQUIBB COMPANY, priority 2018, dated 2020).
Structures can show the parent of a compound that is named as a salt. Where two headings read alike, the source gives them in different places.

Columns and labels:
human DGKζ = molecular target: T1, human DGKζ (Homo sapiens, UniProt Q13574); test: DGKζ LIPGLO assay (extruded liposome substrate), in vitro DGK inhibition; type: biochemical; details: read-out: DGKz LIPGLO IC50
T1 construct: TVMV protease cleavage site (C); Hexa-His (C); made in house; host or cells: Sf9 insect cells (baculovirus, Bac-to-Bac)

Human venous whole blood = test: Human whole blood IFN-γ assay; type: cell-based; details: human whole blood, read-out: INFg Whole Blood Normalized Agonist EC50;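 further: blood from healthy donors exposed to compound for 1 h before stimulation with anti-CD3 and anti-CD28 at 1 µg/mL each, IFN-γ quantified in supernatant by AlphaLISA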
human DGKα = molecular target: T2, human DGKα (Homo sapiens, UniProt P23743); test: DGKα LIPGLO assay (extruded liposome substrate), in vitro DGK inhibition; type: biochemical; details: read-out: DGKa LIPGLO IC50
T2 construct: TVMV protease cleavage site (C); Hexa-His (C); made in house; host or cells: Sf9 insect cells (baculovirus, Bac-to-Bac)

[1] = Homo sapiens, 24 h, anti-CD3 plus anti-CD28, 24 hours, 3 μM reference compound = 100% activation
[2] = anti-CD3 plus anti-CD28, 24 hours, 3 μM reference compound = 100% activation
[3] = Homo sapiens, 24 h, normalized to 3 μM reference compound with anti-CD3 plus anti-CD28 as 100% activation
[4] = normalized to 3 μM reference compound with anti-CD3 plus anti-CD28 as 100% activation

T2 sequence (P23743 with tags, fused parts or gaps): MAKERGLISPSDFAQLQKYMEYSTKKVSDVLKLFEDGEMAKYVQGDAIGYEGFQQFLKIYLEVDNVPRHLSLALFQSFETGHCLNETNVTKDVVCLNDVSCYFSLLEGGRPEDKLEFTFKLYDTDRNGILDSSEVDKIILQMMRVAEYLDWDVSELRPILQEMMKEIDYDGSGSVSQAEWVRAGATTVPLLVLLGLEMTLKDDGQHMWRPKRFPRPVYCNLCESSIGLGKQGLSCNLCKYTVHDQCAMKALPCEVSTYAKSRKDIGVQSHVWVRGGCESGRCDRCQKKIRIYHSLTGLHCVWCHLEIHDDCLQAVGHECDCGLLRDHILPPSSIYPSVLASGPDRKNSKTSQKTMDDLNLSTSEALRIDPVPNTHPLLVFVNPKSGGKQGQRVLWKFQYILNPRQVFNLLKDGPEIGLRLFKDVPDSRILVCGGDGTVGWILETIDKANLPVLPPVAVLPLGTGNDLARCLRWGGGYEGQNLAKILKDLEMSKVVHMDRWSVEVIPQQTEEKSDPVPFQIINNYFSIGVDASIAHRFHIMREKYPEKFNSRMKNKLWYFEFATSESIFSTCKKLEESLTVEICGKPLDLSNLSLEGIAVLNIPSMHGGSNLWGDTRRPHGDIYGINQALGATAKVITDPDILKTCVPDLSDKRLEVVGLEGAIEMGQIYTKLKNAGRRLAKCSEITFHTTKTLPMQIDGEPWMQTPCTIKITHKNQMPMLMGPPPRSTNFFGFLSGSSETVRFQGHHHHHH
T1 sequence (Q13574 with tags, fused parts or gaps isoform Q13574-4): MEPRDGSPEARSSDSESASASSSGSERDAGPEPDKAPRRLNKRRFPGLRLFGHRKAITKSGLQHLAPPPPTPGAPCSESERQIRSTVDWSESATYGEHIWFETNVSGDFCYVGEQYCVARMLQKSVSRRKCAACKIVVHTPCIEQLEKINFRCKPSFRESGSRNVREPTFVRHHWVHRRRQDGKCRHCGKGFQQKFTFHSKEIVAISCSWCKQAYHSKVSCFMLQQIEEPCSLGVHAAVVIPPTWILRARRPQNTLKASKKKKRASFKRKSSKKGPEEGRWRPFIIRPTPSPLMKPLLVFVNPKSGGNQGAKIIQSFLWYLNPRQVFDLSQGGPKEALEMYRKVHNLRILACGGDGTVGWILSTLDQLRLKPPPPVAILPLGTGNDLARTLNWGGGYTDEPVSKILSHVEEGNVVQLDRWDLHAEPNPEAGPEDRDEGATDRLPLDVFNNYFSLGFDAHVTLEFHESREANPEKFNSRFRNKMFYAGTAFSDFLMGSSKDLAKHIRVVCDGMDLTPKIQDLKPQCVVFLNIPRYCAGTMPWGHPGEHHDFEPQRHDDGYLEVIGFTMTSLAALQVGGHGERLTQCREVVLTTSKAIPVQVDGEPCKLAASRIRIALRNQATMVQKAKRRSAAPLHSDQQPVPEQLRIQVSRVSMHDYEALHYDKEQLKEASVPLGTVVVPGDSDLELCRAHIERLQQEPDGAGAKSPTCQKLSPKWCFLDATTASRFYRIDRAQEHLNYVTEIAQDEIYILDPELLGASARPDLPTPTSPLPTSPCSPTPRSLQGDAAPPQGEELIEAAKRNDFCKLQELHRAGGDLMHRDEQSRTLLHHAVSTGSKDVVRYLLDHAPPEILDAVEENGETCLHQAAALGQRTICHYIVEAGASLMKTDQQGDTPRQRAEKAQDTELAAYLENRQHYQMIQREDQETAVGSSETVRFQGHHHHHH

| IC50 (human DGKζ; DGKζ liposome (LIPGLO) assay) [µM] | IC50 (human DGKα; DGKα liposome (LIPGLO) assay) [µM] | IC50 (human DGKζ; liposome (LIPGLO) assay) [µM] | IC50 (human DGKα; liposome (LIPGLO) assay) [µM] | SMILES | EC50 (Human venous whole blood; [1]) [µM] | EC50 (Human venous whole blood; [2]) [µM] | EC50 (Human venous whole blood; [3]) [µM] | EC50 (Human venous whole blood; [4]) [µM] |
| --- | --- | --- | --- | --- | --- | --- | --- | --- |
| 8 | 5.5 | – | – | C[C@@H]1CN(c2c(C#N)c(=O)n(C)c3ccc(C#N)nc23)[C@@H](C)CN1C(c1ccc(Cl)cc1)c1ccc(F)cn1 (single isomer, unassigned) [Example 829] | 1.2 | – | – | – |
| 0.16 | 0.4 | – | – | CCc1noc(C(c2ccc(F)cc2)N2C[C@H](C)N(c3cc(=O)n(C)c4ccc(C#N)nc34)C[C@H]2C)n1 (single isomer, unassigned) [Example 753] | – | 0.64 | – | – |
| – | – | 1.6 | 1.3 | Cc1ccc(C(c2ccc(C#N)cc2)N2C[C@H](C)N(c3cc(=O)n(C)c4ccc(C#N)nc34)C[C@H]2C)cc1 (single isomer, unassigned) [Example 310, TFA salt] | – | – | 1.9 | – |
| – | – | 1 | 0.11 | CC[C@@H]1CN(c2cc(=O)n(C)c3ccc(C#N)nc23)[C@@H](C)CN1Cc1ccccc1 [Example 1076] | – | – | 1.7 | – |
| – | – | 0.045 | 1.1 | CCOC[C@@H]1CN(c2cc(=O)n(C)c3ccc(C#N)nc23)[C@@H](C)CN1C(c1ccc(F)cc1)c1ccc(C(F)(F)F)cn1 (stereo partly drawn) [Example 1403] | – | – | – | 1.9 |
| – | – | 0.31 | 0.62 | CC[C@@H]1CN(c2cc(=O)n(C)c3ccc(C#N)nc23)[C@@H](C)CN1C(c1ccc(F)cc1)c1cccc(C(F)(F)F)n1 (stereo partly drawn) [Example 1113] | – | – | – | 1 |
| 0.72 | 0.92 | – | – | C[C@@H]1CN(c2c(C#N)c(=O)n(C)c3ccc(C#N)nc23)CCN1C(c1ccc(F)cc1)c1ncccc1F (single isomer, unassigned) [Example 893] | – | 1.7 | – | – |
| – | – | 2.9 | 1.3 | C[C@@H]1CN(c2cc(=O)n(C)c3ccc(C#N)nc23)[C@@H](C)CN1C(c1ccc(F)cc1)c1cnn(C)c1 (single isomer, unassigned) [Example 702] | – | – | – | 4.7 |
| 2.7 | 19 | – | – | Cc1ccc(C(c2ccc(F)cc2Cl)N2C[C@H](C)N(c3c(C#N)c(=O)n(C)c4ccc(C#N)nc34)C[C@H]2C)nc1 (stereo partly drawn) [Example 832] | – | 1.8 | – | – |
| – | – | 2.5 | 4 | C[C@@H]1CN(c2cc(=O)n(C)c3ccc(C#N)nc23)[C@@H](C)CN1C(c1ccc(F)cc1)c1cnn(C)c1 (single isomer, unassigned) [Example 703] | – | – | – | 1.2 |
| – | – | 0.012 | 0.062 | COC[C@@H]1CN(c2cc(=O)n(C)c3ccc(C#N)nc23)[C@@H](C)CN1C(c1ccc(F)cc1)c1nc(C2CC2)cs1 (single isomer, unassigned) [Example 1396] | – | – | – | 0.026 |
| 10 | 3.2 | – | – | C[C@@H]1CN(c2c(C#N)c(=O)n(C)c3ccc(C#N)nc23)CCN1C(c1ccc(F)cc1)c1ccc(C#N)cn1 (single isomer, unassigned) [Example 924] | – | 4 | – | – |
| – | – | 240 | 240 | Cn1c(=O)cc(N2CCN(C(c3ccc(F)cc3)c3ccc(F)cc3)CC2c2ccccc2)c2nc(C#N)ccc21 (single isomer, unassigned) [Example 155, 8-(4-(bis(4-fluorophenyl)methyl)-2-phenylpiperazin-1-yl)-5-methyl-6-oxo-5,6-dihydro-1,5-naphthyridine-2-carbonitrile] | – | – | – | 20 |
| 6.2 | 2.7 | – | – | Cc1cc(C)cc(CN2CCN(c3c(C#N)c(=O)n(C)c4ccc(C#N)nc34)C[C@H]2C)c1 [Example 1000] | 4 | – | – | – |
| 0.012 | 0.11 | – | – | C[C@@H]1CN(c2cc(=O)n(C)c3ccc(C#N)nc23)[C@@H](C)CN1C(c1ccc(F)cc1)c1nc(C(C)(C)C)co1 (single isomer, unassigned) [Example 779] | 0.01 | – | – | – |
| 0.22 | 0.054 | – | – | CC(C)c1noc(C(c2ccc(F)cc2)N2C[C@H](C)N(c3cc(=O)n(C)c4ccc(C#N)nc34)C[C@H]2C)n1 (single isomer, unassigned) [Example 748] | – | 0.41 | – | – |
| – | – | 0.018 | 9.3 | CC(c1cc(F)cc(OC(F)(F)F)c1)N1C[C@H](C)N(c2cc(=O)n(C)c3ccc(C#N)nc23)C[C@H]1C (single isomer, unassigned) [Example 1210] | – | – | – | 0.88 |
| > 250 | > 250 | – | – | CC(c1ccccc1C(F)(F)F)N1CCN(c2c(C#N)c(=O)n(C)c3ccc(C#N)nc23)C[C@H]1C (single isomer, unassigned) [Example 968] | – | 20 | – | – |
| – | – | 0.1 | 0.29 | CC(C)c1ccc(C(C)N2C[C@H](C)N(c3cc(=O)n(C)c4ccc(C#N)nc34)C[C@H]2C)cc1 (single isomer, unassigned) [Example 1233] | – | – | – | 0.38 |

| IC50 (human DGKζ; DGKζ liposome (LIPGLO) assay) [µM] | IC50 (human DGKα; DGKα liposome (LIPGLO) assay) [µM] | IC50 (human DGKζ; liposome (LIPGLO) assay) [µM] | IC50 (human DGKα; liposome (LIPGLO) assay) [µM] | SMILES | EC50 (Human venous whole blood; [1]) [µM] | EC50 (Human venous whole blood; [2]) [µM] | EC50 (Human venous whole blood; [3]) [µM] | EC50 (Human venous whole blood; [4]) [µM] |
| --- | --- | --- | --- | --- | --- | --- | --- | --- |
| 100 | 230 | – | – | C[C@@H]1CN(c2c(C#N)c(=O)n(C)c3ccc(C#N)nc23)[C@@H](C)CN1C(c1ccc(F)cc1)c1cncn1C (stereo partly drawn) [Example 848] | 20 | – | – | – |
| – | – | 12 | 59 | Cc1oncc1CN1C[C@H](C)N(c2cc(=O)n(C)c3ccc(C#N)nc23)C[C@H]1C [Example 1431] | – | – | 13 | – |
| 28 | 0.49 | – | – | CC(c1ccc(OC(F)(F)F)cc1)N1CCN(c2c(C#N)c(=O)n(C)c3ccc(C#N)nc23)C[C@H]1C (single isomer, unassigned) [Example 958] | 20 | – | – | – |
| – | – | 2.4 | 0.68 | CC[C@H]1CN(C(c2ccc(F)cc2)c2ccc(Cl)cc2)[C@H](C)CN1c1cc(=O)n(C)c2ccc(C#N)nc12 (stereo partly drawn) [Example 1127] | – | – | 0.52 | – |
| 4.1 | 1 | – | – | C[C@@H]1CN(c2cc(=O)n(C)c3ccc(C#N)nc23)[C@@H](C)CN1C(c1ccc(F)cc1)c1nc(C2CCN(C)CC2)no1 (single isomer, unassigned) [Example 752] | – | 1.7 | – | – |
| – | – | 3.9 | 3.3 | CC[C@@H]1CN(c2cc(=O)n(C)c3ccc(C#N)nc23)[C@@H](C)CN1C(C)c1ccc(OC)cc1 (single isomer, unassigned) [Example 483] | – | – | – | 4.3 |
| – | – | 0.11 | 0.016 | CC(c1cccc(C(F)F)n1)N1C[C@H](C)N(c2cc(=O)n(C)c3ccc(C#N)nc23)C[C@H]1C (stereo partly drawn) [Example 1223] | – | – | – | 0.52 |
| – | – | 2.1 | 19 | CCC(c1cc(OC(F)(F)F)ccc1F)N1C[C@H](CC)N(c2cc(=O)n(C)c3ccc(C#N)nc23)C[C@H]1C (single isomer, unassigned) [Example 1381] | – | – | – | 20 |
| 6.2 | 2.5 | – | – | C[C@@H]1CN(c2c(C#N)c(=O)n(C)c3ccc(C#N)nc23)[C@@H](C)CN1C(c1ccc(F)cc1)c1cccc(C(F)(F)F)n1 (single isomer, unassigned) [Example 845] | – | 1.5 | – | – |
| – | – | 0.13 | 1.5 | CC[C@@H]1CN(c2cc(=O)n(C)c3ccc(C#N)nc23)[C@@H](C)CN1C(c1ccc(F)cc1)c1ccnc(C)n1 (single isomer, unassigned) [Example 418] | – | – | – | 0.28 |
| 1.3 | 1.1 | – | – | C[C@@H]1CN(c2c(C#N)c(=O)n(C)c3ccc(C#N)nc23)CCN1C(c1ccc(F)cc1)c1ccc(C#N)cc1 (single isomer, unassigned) [Example 871] | 3 | – | – | – |
| 0.63 | 0.42 | – | – | C[C@@H]1CN(c2c(C#N)c(=O)n(C)c3ccc(C#N)nc23)[C@@H](C)CN1C(c1ccc(F)cc1)c1nc(C2CC2)no1 (single isomer, unassigned) [Example 861] | – | 0.42 | – | – |
| – | – | 6.6 | 130 | COCCOc1cc(C(C)N2C[C@H](C)N(c3cc(=O)n(C)c4ccc(C#N)nc34)C[C@H]2C)ccc1OC (single isomer, unassigned) [Example 1302] | – | – | 20 | – |
| – | – | 0.13 | 0.36 | CC[C@H]1CN(C(c2ccc(F)cc2)c2cccc(C(F)(F)F)n2)[C@H](C)CN1c1cc(=O)n(C)c2ccc(C#N)nc12 (single isomer, unassigned) [Example 1134] | – | – | – | 0.34 |
| 7.9 | > 250 | – | – | C[C@@H]1CN(c2c(C#N)c(=O)n(C)c3ccc(C#N)nc23)[C@@H](C)CN1C(c1ccc(F)cc1)c1cc(C(C)(C)C)on1 (single isomer, unassigned) [Example 867] | – | 20 | – | – |
| – | – | 7.4 | 24 | COc1cc(F)c(C(C)N2C[C@H](C)N(c3cc(=O)n(C)c4ccc(C#N)nc34)C[C@H]2C)cc1OC (single isomer, unassigned) [Example 1247] | – | – | – | 20 |
| – | – | 0.28 | 0.29 | CC[C@H]1CN(C(C)c2ccc(OC(F)F)cc2)[C@H](CC)CN1c1cc(=O)n(C)c2ccc(C#N)nc12 (single isomer, unassigned) [Example 1374] | – | – | – | 2.7 |
| – | – | 2.2 | 0.14 | CC(c1ccc(OC(F)(F)F)cc1)N1C[C@H](C)N(c2cc(=O)n(C)c3ccc(C#N)nc23)C[C@H]1CO (single isomer, unassigned) [Example 1386] | – | – | – | 3.9 |
| – | – | 4.6 | 0.09 | C[C@@H]1CN(c2cc(=O)n(C)c3ccc(C#N)nc23)[C@@H](C)CN1C(c1ccc(F)cc1)c1ncco1 (stereo partly drawn) [Example 718] | – | – | – | 0.83 |
